According to patent US11858941B2, “Heterocyclic and heteroaryl compounds for treating Huntington's disease” (PTC THERAPEUTICS, INC., priority 2018, dated 2024):

Tested on: Endogenous Huntingtin Protein
Assay: Endogenous Huntingtin Protein Assay (Meso Scale Discovery ELISA-based electrochemiluminescence)
Format: cell-based
Settings: MSD plates coated with MW1 (expanded polyglutamine) or MAB2166 capture antibody; lysates
Summary of the method: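 MSD electrochemiluminescence sandwich ELISA: MW1 (expanded polyQ) or MAB2166 capture antibody at 1 μg/mL, samples incubated overnight at 4° C. Detection with rabbit monoclonal #5656S then SULFO-TAG anti-rabbit antibody, each 0.25 μg/mL for 1 h at room temperature.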

| IC50 [nM] | SMILES |
| --- | --- |
| ≤ 100 | CCOc1cc(-c2ccc(-c3cc4nnn(C5CC(C)(C)NC(C)(C)C5)c4nn3)c(O)c2)ncn1 [Cpd 124, 5-(6-ethoxypyrimidin-4-yl)-2-[3-(2,2,6,6-tetramethylpiperidin-4-yl)-3H-[1,2,3]triazolo[4,5-c]pyridazin-6-yl]phenol] |
| 100 to 500 | CC1(C)CC(n2nnc3cc(-c4ccc(-c5ccn6nncc6c5)cc4O)nnc32)CC(C)(C)N1 [Cpd 125, 2-[3-(2,2,6,6-tetramethylpiperidin-4-yl)-3H-[1,2,3]triazolo[4,5-c]pyridazin-6-yl]-5-([1,2,3]triazolo[1,5-a]pyridin-5-yl)phenol] |
| 100 to 500 | CC1(C)CC(n2nnc3cc(-c4ccc(-c5ccn6ncnc6c5)cc4O)nnc32)CC(C)(C)N1 [Cpd 126, 2-[3-(2,2,6,6-tetramethylpiperidin-4-yl)-3H-[1,2,3]triazolo[4,5-c]pyridazin-6-yl]-5-([1,2,4]triazolo[1,5-a]pyridin-7-yl)phenol] |
| ≤ 100 | Cn1cc(-c2ccc(-c3cc4nnn(C5CC(C)(C)NC(C)(C)C5)c4nn3)c(O)c2)c(Cl)n1 [Cpd 127, 5-(3-chloro-1-methyl-1H-pyrazol-4-yl)-2-[3-(2,2,6,6-tetramethylpiperidin-4-yl)-3H-[1,2,3]triazolo[4,5-c]pyridazin-6-yl]phenol] |
| ≤ 100 | CC1(C)CC(n2nnc3cc(-c4ccc(-c5cc(=O)[nH]cn5)cc4O)nnc32)CC(C)(C)N1 [Cpd 128, 6-{3-hydroxy-4-[3-(2,2,6,6-tetramethylpiperidin-4-yl)-3H-[1,2,3]triazolo[4,5-c]pyridazin-6-yl]phenyl}pyrimidin-4(3H)-one] |
| ≤ 100 | CC1(C)CC(n2nnc3cc(-c4ccc(-c5c[nH]nc5Cl)cc4O)nnc32)CC(C)(C)N1 [Cpd 129, 5-(3-chloro-1H-pyrazol-4-yl)-2-[3-(2,2,6,6-tetramethylpiperidin-4-yl)-3H-[1,2,3]triazolo[4,5-c]pyridazin-6-yl]phenol] |
| ≤ 100 | Cn1cc(-c2ccc(-c3cc4nnn(C5CC(C)(C)NC(C)(C)C5)c4nn3)c(O)c2)c(F)n1 [Cpd 130, 5-(3-fluoro-1-methyl-1H-pyrazol-4-yl)-2-[3-(2,2,6,6-tetramethylpiperidin-4-yl)-3H-[1,2,3]triazolo[4,5-c]pyridazin-6-yl]phenol] |
| ≤ 100 | COc1n[nH]cc1-c1ccc(-c2cc3nnn(C4CC(C)(C)NC(C)(C)C4)c3nn2)c(O)c1 [Cpd 131, 5-(3-methoxy-1H-pyrazol-4-yl)-2-[3-(2,2,6,6-tetramethylpiperidin-4-yl)-3H-[1,2,3]triazolo[4,5-c]pyridazin-6-yl]phenol] |
| 500 to 1000 | Cn1cc(-c2ccc(-c3cc4nnn(C5CC(C)(C)NC(C)(C)C5)c4nn3)c(O)c2)c(C#N)n1 [Cpd 132, 4-{3-hydroxy-4-[3-(2,2,6,6-tetramethylpiperidin-4-yl)-3H-[1,2,3]triazolo[4,5-c]pyridazin-6-yl]phenyl}-1-methyl-1H-pyrazole-3-carbonitrile] |
| 100 to 500 | Cc1cnc(-c2ccc(-c3cc4nnn(C5CC(C)(C)NC(C)(C)C5)c4nn3)c(O)c2)s1 [Cpd 133, 5-(5-methyl-1,3-thiazol-2-yl)-2-[3-(2,2,6,6-tetramethylpiperidin-4-yl)-3H-[1,2,3]triazolo[4,5-c]pyridazin-6-yl]phenol] |
| ≤ 100 | CC1(C)CC(n2nnc3cc(-c4ccc(-c5ncns5)cc4O)nnc32)CC(C)(C)N1 [Cpd 134, 2-[3-(2,2,6,6-tetramethylpiperidin-4-yl)-3H-[1,2,3]triazolo[4,5-c]pyridazin-6-yl]-5-(1,2,4-thiadiazol-5-yl)phenol] |
| ≤ 100 | CC1(C)CC(n2nnc3cc(-c4ccc(-c5cc(F)c6nn[nH]c6c5)cc4O)nnc32)CC(C)(C)N1 [Cpd 135, 5-(4-fluoro-1H-benzotriazol-6-yl)-2-[3-(2,2,6,6-tetramethylpiperidin-4-yl)-3H-[1,2,3]triazolo[4,5-c]pyridazin-6-yl]phenol] |
| ≤ 100 | CC1(C)CC(n2ccc3cc(-c4ncc(-c5cn[nH]c5)cc4O)nnc32)CC(C)(C)N1 [Cpd 136, 5-(1H-pyrazol-4-yl)-2-[7-(2,2,6,6-tetramethylpiperidin-4-yl)-7H-pyrrolo[2,3-c]pyridazin-3-yl]pyridin-3-ol] |
| ≤ 100 | CC1(C)CC(n2nnc3cc(-c4ccc(-c5c[nH]nc5Br)cc4O)nnc32)CC(C)(C)N1 [Cpd 137, 5-(3-bromo-1H-pyrazol-4-yl)-2-[3-(2,2,6,6-tetramethylpiperidin-4-yl)-3H-[1,2,3]triazolo[4,5-c]pyridazin-6-yl]phenol] |
| 100 to 500 | Cn1cc(-c2ccc(-c3cc4nnn(C5CC(C)(C)NC(C)(C)C5)c4nn3)c(O)c2)nn1 [Cpd 138, 5-(1-methyl-1H-1,2,3-triazol-4-yl)-2-[3-(2,2,6,6-tetramethylpiperidin-4-yl)-3H-[1,2,3]triazolo[4,5-c]pyridazin-6-yl]phenol] |
| 100 to 500 | CC1(C)CC(n2nnc3cc(-c4ccc(-c5c[nH]nc5C(F)(F)F)cc4O)nnc32)CC(C)(C)N1 [Cpd 139, 2-[3-(2,2,6,6-tetramethylpiperidin-4-yl)-3H-[1,2,3]triazolo[4,5-c]pyridazin-6-yl]-5-[3-(trifluoromethyl)-1H-pyrazol-4-yl]phenol] |

| IC50 [nM] | SMILES |
| --- | --- |
| ≤ 100 | CC1(C)CC(n2nnc3cc(-c4ncc(-c5cn[nH]c5)cc4O)nnc32)CC(C)(C)N1 [Cpd 140, 5-(1H-pyrazol-4-yl)-2-[3-(2,2,6,6-tetramethylpiperidin-4-yl)-3H-[1,2,3]triazolo[4,5-c]pyridazin-6-yl]pyridin-3-ol] |
| ≤ 100 | CC1(C)CC(n2cnc3cc(-c4ncc(-c5cn[nH]c5)cc4O)nnc32)CC(C)(C)N1 [Cpd 141, 5-(1H-pyrazol-4-yl)-2-[7-(2,2,6,6-tetramethylpiperidin-4-yl)-7H-imidazo[4,5-c]pyridazin-3-yl]pyridin-3-ol] |
| ≤ 100 | CC1(C)CC(n2nnc3cc(-c4ccc(-c5cn6ccnc6cn5)cc4O)nnc32)CC(C)(C)N1 [Cpd 142, 5-(imidazo[1,2-a]pyrazin-6-yl)-2-[3-(2,2,6,6-tetramethylpiperidin-4-yl)-3H-[1,2,3]triazolo[4,5-c]pyridazin-6-yl]phenol] |
| ≤ 100 | CC1(C)CC(n2nnc3cc(-c4ccc(-n5cnc(F)c5)cc4O)nnc32)CC(C)(C)N1 [Cpd 143, 5-(4-fluoro-1H-imidazol-1-yl)-2-[3-(2,2,6,6-tetramethylpiperidin-4-yl)-3H-[1,2,3]triazolo[4,5-c]pyridazin-6-yl]phenol] |
| ≤ 100 | Cc1cn(-c2ccc(-c3cc4nnn(C5CC(C)(C)NC(C)(C)C5)c4nn3)c(O)c2)cn1 [Cpd 144, 5-(4-methyl-1H-imidazol-1-yl)-2-[3-(2,2,6,6-tetramethylpiperidin-4-yl)-3H-[1,2,3]triazolo[4,5-c]pyridazin-6-yl]phenol] |
| 1000 to 3000 | CC1(C)CC(n2nnc3cc(-c4ccc(-c5cnc6nn[nH]c6c5)cc4O)nnc32)CC(C)(C)N1 [Cpd 145, 2-[3-(2,2,6,6-tetramethylpiperidin-4-yl)-3H-[1,2,3]triazolo[4,5-c]pyridazin-6-yl]-5-(1H-[1,2,3]triazolo[4,5-b]pyridin-6-yl)phenol] |
| 1000 to 3000 | CC1(C)CC(n2nnc3cc(-c4ccc(-c5cc6nn[nH]c6cn5)cc4O)nnc32)CC(C)(C)N1 [Cpd 146, 2-[3-(2,2,6,6-tetramethylpiperidin-4-yl)-3H-[1,2,3]triazolo[4,5-c]pyridazin-6-yl]-5-(3H-[1,2,3]triazolo[4,5-c]pyridin-6-yl)phenol] |
| 1000 to 3000 | CC1(C)CC(n2nnc3cc(-c4ccc(-c5ccc6[nH]nnc6n5)cc4O)nnc32)CC(C)(C)N1 [Cpd 147, 2-[3-(2,2,6,6-tetramethylpiperidin-4-yl)-3H-[1,2,3]triazolo[4,5-c]pyridazin-6-yl]-5-(1H-[1,2,3]triazolo[4,5-b]pyridin-5-yl)phenol] |
| ≤ 100 | Cn1cc(-c2ccc(-c3cc4cnn(C5CC(C)(C)NC(C)(C)C5)c4nn3)c(O)c2)c(F)n1 [Cpd 148] |
| 1000 to 3000 | Cc1cn(-c2ccc(-c3cc4nnn(C5CC(C)(C)NC(C)(C)C5)c4nn3)c(O)c2)c(C)n1 [Cpd 149, 5-(2,4-dimethyl-1H-imidazol-1-yl)-2-[3-(2,2,6,6-tetramethylpiperidin-4-yl)-3H-[1,2,3]triazolo[4,5-c]pyridazin-6-yl]phenol] |
| ≤ 100 | Cc1ncc(-c2ccc(-c3cc4nnn(C5CC(C)(C)NC(C)(C)C5)c4nn3)c(O)c2)s1 [Cpd 150, 5-(2-methyl-1,3-thiazol-5-yl)-2-[3-(2,2,6,6-tetramethylpiperidin-4-yl)-3H-[1,2,3]triazolo[4,5-c]pyridazin-6-yl]phenol] |
| ≤ 100 | Cn1ncc(-c2ccc(-c3cc4nnn(C5CC(C)(C)NC(C)(C)C5)c4nn3)c(O)c2)n1 [Cpd 151, 5-(2-methyl-2H-1,2,3-triazol-4-yl)-2-[3-(2,2,6,6-tetramethylpiperidin-4-yl)-3H-[1,2,3]triazolo[4,5-c]pyridazin-6-yl]phenol] |
| 100 to 500 | CC1(C)CC(n2nnc3cc(-c4ccc(-c5ccc6nncn6n5)cc4O)nnc32)CC(C)(C)N1 [Cpd 152, 2-[3-(2,2,6,6-tetramethylpiperidin-4-yl)-3H-[1,2,3]triazolo[4,5-c]pyridazin-6-yl]-5-([1,2,4]triazolo[4,3-b]pyridazin-6-yl)phenol] |
| ≤ 100 | Cc1nsc(-c2ccc(-c3cc4nnn(C5CC(C)(C)NC(C)(C)C5)c4nn3)c(O)c2)n1 [Cpd 153, 5-(3-methyl-1,2,4-thiadiazol-5-yl)-2-[3-(2,2,6,6-tetramethylpiperidin-4-yl)-3H-[1,2,3]triazolo[4,5-c]pyridazin-6-yl]phenol] |
| ≤ 100 | Cc1nc(F)c(-c2ccc(-c3cc4nnn(C5CC(C)(C)NC(C)(C)C5)c4nn3)c(O)c2)s1 [Cpd 154, 5-(4-fluoro-2-methyl-1,3-thiazol-5-yl)-2-[3-(2,2,6,6-tetramethylpiperidin-4-yl)-3H-[1,2,3]triazolo[4,5-c]pyridazin-6-yl]phenol] |
| 3000 to 9000 | Cc1ccnn1-c1ccc(-c2cc3nnn(C4CC(C)(C)NC(C)(C)C4)c3nn2)c(O)c1 [Cpd 155, 5-(5-methyl-1H-pyrazol-1-yl)-2-[3-(2,2,6,6-tetramethylpiperidin-4-yl)-3H-[1,2,3]triazolo[4,5-c]pyridazin-6-yl]phenol] |
